Results as given in US7838542B2, “Bicyclic compositions and methods for modulating a kinase cascade” (Kinex Pharmaceuticals, LLC, priority 2006, dated 2010).

How the values were obtained:
isolated kinases = experiment: Isolated kinases panel, percent activity relative to control (Table XV); assay type: biochemical
Text: (§1) Table XV illustrates percent activity of isolated kinases in the presence of the AstraZeneca ATP-competitive inhibitor (KX-328, AZ-28) or KX2-391 relative to control (untreated) isolated kinases.

Abl = Abl (Homo sapiens, UniProt P00519); experiment: Isolated kinase assay, Abl; assay type: biochemical
Sequence of Abl (P00519 whole entry): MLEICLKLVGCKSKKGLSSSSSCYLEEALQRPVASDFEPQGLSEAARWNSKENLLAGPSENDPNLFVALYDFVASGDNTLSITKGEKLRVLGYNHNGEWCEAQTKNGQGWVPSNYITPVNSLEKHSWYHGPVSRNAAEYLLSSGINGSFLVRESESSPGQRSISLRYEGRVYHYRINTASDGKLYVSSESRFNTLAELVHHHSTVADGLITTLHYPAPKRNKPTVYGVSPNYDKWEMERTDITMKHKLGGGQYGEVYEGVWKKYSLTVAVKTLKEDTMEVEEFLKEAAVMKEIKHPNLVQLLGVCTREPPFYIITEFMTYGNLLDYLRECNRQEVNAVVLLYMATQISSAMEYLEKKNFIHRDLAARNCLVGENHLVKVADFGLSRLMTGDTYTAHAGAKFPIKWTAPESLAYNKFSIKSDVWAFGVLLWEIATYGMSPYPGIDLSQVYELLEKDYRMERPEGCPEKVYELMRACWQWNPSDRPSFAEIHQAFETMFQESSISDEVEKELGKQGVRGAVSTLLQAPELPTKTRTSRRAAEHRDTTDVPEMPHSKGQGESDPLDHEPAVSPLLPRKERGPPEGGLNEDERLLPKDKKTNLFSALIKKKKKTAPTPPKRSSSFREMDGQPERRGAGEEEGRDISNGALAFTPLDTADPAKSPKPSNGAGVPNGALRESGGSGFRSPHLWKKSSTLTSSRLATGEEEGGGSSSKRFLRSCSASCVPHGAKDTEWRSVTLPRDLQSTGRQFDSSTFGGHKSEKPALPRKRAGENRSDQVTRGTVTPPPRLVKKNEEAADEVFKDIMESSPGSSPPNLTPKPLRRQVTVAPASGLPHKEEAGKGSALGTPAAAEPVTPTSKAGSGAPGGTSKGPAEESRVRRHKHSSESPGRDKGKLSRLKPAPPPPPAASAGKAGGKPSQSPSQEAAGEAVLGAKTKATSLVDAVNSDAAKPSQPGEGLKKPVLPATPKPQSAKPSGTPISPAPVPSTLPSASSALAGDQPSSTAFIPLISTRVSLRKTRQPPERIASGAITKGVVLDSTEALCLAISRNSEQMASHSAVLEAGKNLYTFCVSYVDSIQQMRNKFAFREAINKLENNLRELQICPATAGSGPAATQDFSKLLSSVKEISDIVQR
Text: as §1

EGFRTK = EGFRTK (Homo sapiens, UniProt P00533); experiment: Isolated kinase assay, EGFRTK; assay type: biochemical
Sequence of EGFRTK (P00533 25-1210): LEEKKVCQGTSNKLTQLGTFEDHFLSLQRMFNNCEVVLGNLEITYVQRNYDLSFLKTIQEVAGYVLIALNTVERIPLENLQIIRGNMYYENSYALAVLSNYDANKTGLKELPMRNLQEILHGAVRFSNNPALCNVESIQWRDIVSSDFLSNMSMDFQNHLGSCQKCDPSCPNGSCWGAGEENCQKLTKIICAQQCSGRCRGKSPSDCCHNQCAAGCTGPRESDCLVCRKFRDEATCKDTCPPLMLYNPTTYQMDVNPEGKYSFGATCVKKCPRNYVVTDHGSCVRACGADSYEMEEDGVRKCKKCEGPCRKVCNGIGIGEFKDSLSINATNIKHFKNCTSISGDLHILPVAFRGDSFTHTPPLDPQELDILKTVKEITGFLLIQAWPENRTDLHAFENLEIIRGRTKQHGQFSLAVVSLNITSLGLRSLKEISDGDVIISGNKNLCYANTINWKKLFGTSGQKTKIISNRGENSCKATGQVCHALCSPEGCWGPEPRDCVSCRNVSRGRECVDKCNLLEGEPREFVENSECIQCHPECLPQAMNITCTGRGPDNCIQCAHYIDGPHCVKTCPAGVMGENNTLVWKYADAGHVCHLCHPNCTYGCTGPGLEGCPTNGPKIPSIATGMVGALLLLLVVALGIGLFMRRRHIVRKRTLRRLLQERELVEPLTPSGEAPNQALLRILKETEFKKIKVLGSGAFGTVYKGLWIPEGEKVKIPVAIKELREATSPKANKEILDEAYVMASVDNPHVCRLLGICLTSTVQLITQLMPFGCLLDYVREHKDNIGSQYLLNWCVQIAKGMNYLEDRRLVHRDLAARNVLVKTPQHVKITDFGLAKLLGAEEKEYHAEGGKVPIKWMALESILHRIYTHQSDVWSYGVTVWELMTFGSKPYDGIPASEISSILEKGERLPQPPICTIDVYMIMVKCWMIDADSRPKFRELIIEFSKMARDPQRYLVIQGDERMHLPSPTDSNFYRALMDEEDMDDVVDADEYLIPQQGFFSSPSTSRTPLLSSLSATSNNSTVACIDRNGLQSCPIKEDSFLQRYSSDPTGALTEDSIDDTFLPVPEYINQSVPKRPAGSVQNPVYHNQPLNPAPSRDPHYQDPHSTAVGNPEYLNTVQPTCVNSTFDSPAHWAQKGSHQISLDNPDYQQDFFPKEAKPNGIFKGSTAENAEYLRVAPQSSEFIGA
Text: as §1

Fyn = Fyn (Homo sapiens, UniProt P06241); experiment: Isolated kinase assay, Fyn; assay type: biochemical
Sequence of Fyn (P06241 whole entry): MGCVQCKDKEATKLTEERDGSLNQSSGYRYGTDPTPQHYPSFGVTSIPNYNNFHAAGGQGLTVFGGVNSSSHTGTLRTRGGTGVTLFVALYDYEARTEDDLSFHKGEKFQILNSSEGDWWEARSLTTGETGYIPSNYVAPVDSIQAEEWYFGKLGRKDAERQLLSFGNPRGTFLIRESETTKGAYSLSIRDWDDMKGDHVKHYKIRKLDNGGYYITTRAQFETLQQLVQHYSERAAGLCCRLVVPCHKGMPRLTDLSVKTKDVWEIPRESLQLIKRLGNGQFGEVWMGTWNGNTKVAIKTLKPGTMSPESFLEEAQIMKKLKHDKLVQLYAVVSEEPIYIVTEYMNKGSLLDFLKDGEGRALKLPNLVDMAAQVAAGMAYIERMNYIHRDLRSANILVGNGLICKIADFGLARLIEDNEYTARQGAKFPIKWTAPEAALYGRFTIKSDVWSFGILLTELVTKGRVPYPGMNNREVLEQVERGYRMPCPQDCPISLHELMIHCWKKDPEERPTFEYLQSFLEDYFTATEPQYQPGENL
Text: as §1

Lck = Lck (Homo sapiens, UniProt P06239); experiment: Isolated kinase assay, Lck; assay type: biochemical
Sequence of Lck (P06239 whole entry): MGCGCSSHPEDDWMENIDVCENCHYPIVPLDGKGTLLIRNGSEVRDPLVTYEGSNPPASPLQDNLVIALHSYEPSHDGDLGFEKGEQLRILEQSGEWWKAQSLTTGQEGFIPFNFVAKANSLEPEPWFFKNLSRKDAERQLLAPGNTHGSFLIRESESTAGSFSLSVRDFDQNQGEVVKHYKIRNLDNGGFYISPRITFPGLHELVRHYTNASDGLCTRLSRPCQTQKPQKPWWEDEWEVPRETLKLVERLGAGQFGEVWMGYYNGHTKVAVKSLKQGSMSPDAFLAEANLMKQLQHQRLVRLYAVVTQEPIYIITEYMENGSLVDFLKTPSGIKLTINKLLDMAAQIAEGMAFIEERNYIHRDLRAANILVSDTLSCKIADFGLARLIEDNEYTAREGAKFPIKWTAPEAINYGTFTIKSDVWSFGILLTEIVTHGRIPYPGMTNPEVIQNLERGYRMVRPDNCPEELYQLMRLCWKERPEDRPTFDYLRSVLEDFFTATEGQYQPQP
Text: as §1

Lyn = Lyn (Homo sapiens, UniProt P07948); experiment: Isolated kinase assay, Lyn; assay type: biochemical
Sequence of Lyn (P07948 whole entry): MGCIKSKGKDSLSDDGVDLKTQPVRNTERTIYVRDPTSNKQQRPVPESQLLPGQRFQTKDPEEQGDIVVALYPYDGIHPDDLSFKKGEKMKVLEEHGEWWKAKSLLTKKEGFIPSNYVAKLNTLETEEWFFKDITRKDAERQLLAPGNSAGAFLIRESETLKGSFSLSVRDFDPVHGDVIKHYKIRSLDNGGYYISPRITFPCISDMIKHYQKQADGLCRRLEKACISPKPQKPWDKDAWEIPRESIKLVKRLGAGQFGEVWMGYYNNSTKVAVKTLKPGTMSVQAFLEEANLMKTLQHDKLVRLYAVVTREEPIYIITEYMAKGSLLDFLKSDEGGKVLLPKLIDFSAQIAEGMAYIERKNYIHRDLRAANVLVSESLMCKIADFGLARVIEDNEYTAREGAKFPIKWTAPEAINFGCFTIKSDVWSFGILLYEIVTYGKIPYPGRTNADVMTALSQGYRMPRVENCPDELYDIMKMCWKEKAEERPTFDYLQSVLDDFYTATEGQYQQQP
Text: as §1

Yes = Yes (Homo sapiens, UniProt P07947); experiment: Isolated kinase assay, Yes; assay type: biochemical
Sequence of Yes (P07947 whole entry): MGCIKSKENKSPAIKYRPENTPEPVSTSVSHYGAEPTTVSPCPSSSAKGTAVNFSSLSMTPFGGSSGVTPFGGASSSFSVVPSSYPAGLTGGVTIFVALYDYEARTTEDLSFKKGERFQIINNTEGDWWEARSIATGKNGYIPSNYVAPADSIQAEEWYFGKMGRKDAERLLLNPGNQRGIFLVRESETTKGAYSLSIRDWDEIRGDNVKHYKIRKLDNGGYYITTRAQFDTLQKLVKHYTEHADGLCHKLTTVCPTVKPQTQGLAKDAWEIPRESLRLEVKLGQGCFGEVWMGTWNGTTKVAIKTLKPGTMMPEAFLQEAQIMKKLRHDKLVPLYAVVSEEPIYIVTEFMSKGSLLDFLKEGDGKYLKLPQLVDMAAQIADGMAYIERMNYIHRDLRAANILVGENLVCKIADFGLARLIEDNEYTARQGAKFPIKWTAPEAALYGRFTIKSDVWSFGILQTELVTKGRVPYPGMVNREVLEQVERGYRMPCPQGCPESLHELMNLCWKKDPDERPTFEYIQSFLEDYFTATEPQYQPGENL
Text: as §1

[1] = test system: PDGF receptor tyrosine kinase; experiment: Isolated kinase assay, PDGF receptor tyrosine kinase; assay type: biochemical; settings: @ 10 μM
Text: as §1

Src = Src (Homo sapiens, UniProt P12931); experiment: Isolated kinase assay and titration, Src; assay type: biochemical; settings: titration data
Text: as §1

[2] = test system: c-Src/NIH-3T3 engineered cell line; experiment: Src-driven cell growth, c-Src/NIH-3T3; assay type: cell-based
[3] = test system: NCI human colon cancer cell line HT29; experiment: Cell growth, HT29; assay type: cell-based
Src-Y416 = experiment: Intracellular phosphorylation: Src-Y416 autophosphorylation; assay type: cell-based; settings: HT29 and c-Src527F/NIH-3T3 cells; 0.2×, 1×, 5×, 25× GI50
Procedure: (§2) HT29 (colon cancer) and c-Src527F/NIH-3T3 (Src transformed) cell lines were treated with KX2-391 or with AstraZeneca's ATP competitive Src inhibitor AZ28. AZ28 serves as a positive comparator to show what a validated Src inhibitor should do in these assays. After treatment with compound, cells were lysed, subjected to PAGE and probed with a battery of antibodies. […] In addition, off-target protein phosphorylation was also investigated. Further, induction of apoptosis was evaluated via Caspase 3 cleavage. Multiple doses of each compound were tested because the trends in response to increasing drug concentration are the most reliable indicator of activity.
(§3) The same range of multiples of the GI50 for AZ28 in these two cell lines was run as a comparison.

FAK Tyr 925 = experiment: Intracellular phosphorylation: FAK Tyr 925; assay type: cell-based; settings: c-Src/NIH-3T3 and HT-29 cells
Procedure: as §2, §3

Shc Y239/240 = experiment: Intracellular phosphorylation: Shc Y239/240; assay type: cell-based; settings: c-Src/NIH-3T3 and HT-29 cells
Procedure: as §2, §3

Paxillin Y-31 = experiment: Intracellular phosphorylation: Paxillin Y-31; assay type: cell-based; settings: c-Src/NIH-3T3 cells
Procedure: as §2, §3
Note: paxillin Y-31 was not detected in HT29 cells with or without added drug.

Caspase-3 = experiment: Induction of apoptosis via Caspase 3 cleavage; assay type: cell-based; settings: HT29 and c-Src527F/NIH-3T3 cells
Procedure: as §2
Cleavage of Caspase-3 is a good measure of induction of apoptosis.

total phosphotyrosine = experiment: Total phosphotyrosine levels; assay type: cell-based; settings: HT29 and c-Src527F/NIH-3T3 cells
Procedure: as §2

[4] = test system: PDGF receptor tyrosine kinase Y572/574; experiment: PDGF receptor autophosphorylation Y572/574; assay type: cell-based; settings: c-Src/NIH-3T3 cells
Procedure: as §2
PDGF receptor tyrosine kinase autophosphorylates on Y572/574. This is thought not to be a direct Src substrate in cells. […] PDGF receptor tyrosine kinase Y572/574 was not detected in HT29 cells with no drug added (as well as with drug added).

FAK Y397 = FAK Y397 autophosphorylation; assay type: cell-based; settings: c-Src527F/NIH3T3 cells
Procedure: as §2
FAK Y397 is mainly a FAK autophosphorylation site and only a poor Src transphorylation site.

EGFR tyrosine kinase = EGFR tyrosine kinase autophosphorylation; assay type: cell-based; settings: c-Src/NIH-3T3 and HT-29 cells
Procedure: as §2
This site is not a direct Src phosphorylation site.

CHK1(h) = CHK1(h) (Homo sapiens, UniProt O14757); experiment: Isolated kinases, percent activity relative to control (Table XV), CHK1; assay type: biochemical; settings: @ 10 μM
Text: as §1

FGFR2(h) = FGFR2(h) (Homo sapiens, UniProt P21802); experiment: Isolated kinases, percent activity relative to control (Table XV), FGFR2; assay type: biochemical; settings: @ 10 μM
Text: as §1

IGF-1R(h) = IGF-1R(h) (Homo sapiens, UniProt P08069); experiment: Isolated kinases, percent activity relative to control (Table XV), IGF-1R; assay type: biochemical; settings: @ 10 μM
Text: as §1

IR(h) = IR(h) (Homo sapiens, UniProt P06213); experiment: Isolated kinases, percent activity relative to control (Table XV), IR; assay type: biochemical; settings: @ 10 μM
Text: as §1

MAPK2(h) = MAPK2(h) (Homo sapiens, UniProt P28482); experiment: Isolated kinases, percent activity relative to control (Table XV), MAPK2; assay type: biochemical; settings: @ 10 μM
Text: as §1

PKCα(h) = PKCα(h) (Homo sapiens, UniProt P17252); experiment: Isolated kinases, percent activity relative to control (Table XV), PKCα; assay type: biochemical; settings: @ 10 μM
Text: as §1

Pyk2(h) = Pyk2(h) (Homo sapiens, UniProt Q14289); experiment: Isolated kinases, percent activity relative to control (Table XV), Pyk2; assay type: biochemical; settings: @ 10 μM
Text: as §1

ZAP-70(h) = ZAP-70(h) (Homo sapiens, UniProt P43403); experiment: Isolated kinases, percent activity relative to control (Table XV), ZAP-70; assay type: biochemical; settings: @ 10 μM
Sequence of ZAP-70(h) (P43403 whole entry): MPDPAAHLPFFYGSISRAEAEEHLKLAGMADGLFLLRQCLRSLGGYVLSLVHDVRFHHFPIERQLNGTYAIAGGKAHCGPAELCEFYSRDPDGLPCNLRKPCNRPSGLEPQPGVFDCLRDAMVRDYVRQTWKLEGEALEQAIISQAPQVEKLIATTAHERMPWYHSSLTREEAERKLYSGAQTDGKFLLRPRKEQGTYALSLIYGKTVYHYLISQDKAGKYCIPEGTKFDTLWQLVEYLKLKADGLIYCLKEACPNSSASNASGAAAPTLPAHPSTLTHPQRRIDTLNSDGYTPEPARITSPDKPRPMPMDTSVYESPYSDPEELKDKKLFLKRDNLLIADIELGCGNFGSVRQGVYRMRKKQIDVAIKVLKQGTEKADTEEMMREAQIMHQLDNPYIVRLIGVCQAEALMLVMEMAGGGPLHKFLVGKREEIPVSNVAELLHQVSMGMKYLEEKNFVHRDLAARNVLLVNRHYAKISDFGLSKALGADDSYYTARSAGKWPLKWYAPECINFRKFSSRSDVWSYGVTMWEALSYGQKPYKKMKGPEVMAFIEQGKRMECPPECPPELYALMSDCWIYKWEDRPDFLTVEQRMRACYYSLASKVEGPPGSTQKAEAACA
Text: as §1

PI3 kinase = experiment: Isolated kinases, percent activity relative to control (Table XV), PI3 kinase; assay type: biochemical; settings: @ 10 μM
Text: as §1

## O=C(Cc1ccc(-c2ccc(OCCN3CCOCC3)cc2)cn1)NCc1ccccc1 [KX2-391]
Isolated kinases
  activity against isolated kinases: weak activity against isolated kinases
Abl
  inhibition of isolated Abl: poor inhibition
Abl; @ 10 μM
  percent activity of isolated kinase relative to control, Ab1(h): 120%
EGFRTK
  inhibition of isolated EGFRTK: poor inhibition
EGFRTK; @ 10 μM
  percent activity of isolated kinase relative to control, EGFR(h): 134%
Fyn
  inhibition of isolated Fyn: poor inhibition
Fyn; @ 10 μM
  percent activity of isolated kinase relative to control, Fyn(h): 85%
Lck
  inhibition of isolated Lck: poor inhibition
Lck; @ 10 μM
  percent activity of isolated kinase relative to control, Lck(h): 109%
Lyn
  inhibition of isolated Lyn: poor inhibition
Lyn; @ 10 μM
  percent activity of isolated kinase relative to control, Lyn(h): 113%
Yes
  inhibition of isolated Yes: poor inhibition
Yes; @ 10 μM
  percent activity of isolated kinase relative to control, Yes(h): 92%
[1]
  percent activity of isolated kinase relative to control, PDGFRβ(h): 110%
Src
  IC50: 46000 nM
[2]
  GI50: 13 nM
[3]
  GI50: 23 nM
Src-Y416
  Src-Y416 autophosphorylation: expected dose response
FAK Tyr 925
  phosphorylation of FAK Tyr 925: inhibited Src trans-phosphorylation
Shc Y239/240
  phosphorylation of Shc Y239/240: inhibited Src trans-phosphorylation
Paxillin Y-31
  phosphorylation of Paxillin Y-31: inhibited Src trans-phosphorylation
Caspase-3
  induction of apoptosis (Caspase-3 cleavage): very effective in inducing apoptosis
Total phosphotyrosine
  total phosphotyrosine levels: reduction in the total phosphotyrosine levels
[4]
  PDGF receptor autophosphorylation: Some effect is seen
FAK Y397
  FAK autophosphorylation (Y397): no inhibition of FAK autophosphorylation
EGFR tyrosine kinase
  EGFR tyrosine kinase autophosphorylation: less active
CHK1(h)
  percent activity of isolated kinase relative to control, CHK1(h): 105%
FGFR2(h)
  percent activity of isolated kinase relative to control, FGFR2(h): 94%
IGF-1R(h)
  percent activity of isolated kinase relative to control, IGF-1R(h): 101%
IR(h)
  percent activity of isolated kinase relative to control, IR(h): 112%
MAPK2(h)
  percent activity of isolated kinase relative to control, MAPK2(h): 112%
PKCα(h)
  percent activity of isolated kinase relative to control, PKCα(h): 111%
Pyk2(h)
  percent activity of isolated kinase relative to control, Pyk2(h): 97%
ZAP-70(h)
  percent activity of isolated kinase relative to control, ZAP-70(h): 108%
PI3 kinase
  percent activity of isolated kinase relative to control, PI3 kinase: 100%
